US6040330A, “Pharmaceutical formulations of taxanes” (BioNumerik Pharmaceuticals, Inc., priority 1999, dated 2000)
≈ marks a conversion by molar mass, not a printed value.

Experiments:
[1] = maximum solubility in NMP; format: physicochemical; conditions: organic solvent or mixture; in NMP (N-methylpyrrolidin-2-one)
[2] = cited from earlier work

SMILES: CC(=O)O[C@@]12CO[C@@H]1C[C@H](O)[C@@]1(C)C(=O)[C@H](O)C3=C(C)[C@@H](OC(=O)[C@H](O)[C@@H](NC(=O)OC(C)(C)C)c4ccccc4)C[C@@](O)([C@@H](OC(=O)c4ccccc4)[C@H]21)C3(C)C [Docetaxel]
- solubility [1]: ~40 mg/mL (≈ 49.5 mM)
- solubility in water (in words) [2]: very poorly soluble in water

SMILES: CC(=O)O[C@H]1C(=O)[C@@]2(C)[C@H]([C@H](OC(=O)c3ccccc3)[C@]3(O)C[C@H](OC(=O)[C@H](O)[C@@H](NC(=O)c4ccccc4)c4ccccc4)C(C)=C1C3(C)C)[C@]1(OC(C)=O)CO[C@@H]1C[C@@H]2O [Paclitaxel]
- solubility [1]: ~40 mg/mL (≈ 46.8 mM)
- solubility in water (in words) [2]: very poorly water soluble
- water solubility ([2]; in water): less than 10 μg/mL
